In US20100267561A1, “HERBICIDAL PYRIDAZINONE DERIVATIVES” (priority 2007, published 2010):

Key:
Experiment in all cases: Test E pre-/postemergence plant response
Assay type in all cases: in vivo
[1] = tested on: barnyardgrass (Echinochloa crus-galli); settings: scale 0 to 100
In short: (§1)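 Plants scored visually versus controls on a 0–100 scale (100 = complete control) 14 to 21 days after treatment in the greenhouse. Test chemicals in a surfactant-containing non-phytotoxic solvent were applied to soil preemergence or to 1- to 4-leaf plants, 2–18 cm tall.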

[2] = tested on: bermudagrass (Cynodon dactylon); settings: scale 0 to 100
In short: as §1

[3] = tested on: black mustard (Brassica nigra); settings: scale 0 to 100
In short: as §1

[4] = tested on: common chickweed (Stellaria media); settings: Postemergence, scale 0 to 100
In short: as §1

[5] = tested on: common purslane (Portulaca oleracea); settings: scale 0 to 100
In short: as §1

[6] = tested on: dallisgrass (Paspalum dilatatum); settings: scale 0 to 100
In short: as §1

[7] = tested on: goosegrass (Eleusine indica); settings: scale 0 to 100
In short: as §1

[8] = tested on: green foxtail (Setaria viridis); settings: scale 0 to 100
In short: as §1

[9] = tested on: johnsongrass (Sorghum halepense); settings: scale 0 to 100
In short: as §1

[10] = tested on: large crabgrass (Digitaria sanguinalis); settings: scale 0 to 100
In short: as §1

[11] = tested on: quackgrass (Elytrigia repens); settings: scale 0 to 100
In short: as §1

[12] = tested on: southern (S.) sandbur (Cenchrus echinatus); settings: scale 0 to 100
In short: as §1

[13] = tested on: surinam grass (Brachiaria decumbens); settings: scale 0 to 100
In short: as §1

CCc1cc(-c2ccc(Cl)cc2)nn1-c1c(OC(=O)C(C)(C)C)cnn(C)c1=O [Compound 40]
Plant response rating, Barnyardgrass ([1]; 8 g ai/ha, Preemergence): 75
Plant response rating, Barnyardgrass ([1]; 16 g ai/ha, Preemergence): 95
Plant response rating, Barnyardgrass ([1]; 31 g ai/ha, Preemergence): 100
Plant response rating, Barnyardgrass ([1]; 62 g ai/ha, Preemergence): 100
Plant response rating, Barnyardgrass ([1]; Postemergence, 8 g ai/ha): 100
Plant response rating, Barnyardgrass ([1]; Postemergence, 16 g ai/ha): 100
Plant response rating, Barnyardgrass ([1]; Postemergence, 31 g ai/ha): 100
Plant response rating, Barnyardgrass ([1]; Postemergence, 62 g ai/ha): 100
Plant response rating, Bermudagrass ([2]; 8 g ai/ha, Preemergence): 40
Plant response rating, Bermudagrass ([2]; 16 g ai/ha, Preemergence): 80
Plant response rating, Bermudagrass ([2]; 31 g ai/ha, Preemergence): 98
Plant response rating, Bermudagrass ([2]; 62 g ai/ha, Preemergence): 100
Plant response rating, Bermudagrass ([2]; Postemergence, 8 g ai/ha): 30
Plant response rating, Bermudagrass ([2]; Postemergence, 16 g ai/ha): 50
Plant response rating, Bermudagrass ([2]; Postemergence, 31 g ai/ha): 60
Plant response rating, Bermudagrass ([2]; Postemergence, 62 g ai/ha): 70
Plant response rating, Mustard, Black ([3]; 8 g ai/ha, Preemergence): 0
Plant response rating, Mustard, Black ([3]; 16 g ai/ha, Preemergence): 0
Plant response rating, Mustard, Black ([3]; 31 g ai/ha, Preemergence): 0
Plant response rating, Mustard, Black ([3]; 62 g ai/ha, Preemergence): 0
Plant response rating, Mustard, Black ([3]; Postemergence, 8 g ai/ha): 0
Plant response rating, Mustard, Black ([3]; Postemergence, 16 g ai/ha): 0
Plant response rating, Mustard, Black ([3]; Postemergence, 31 g ai/ha): 0
Plant response rating, Mustard, Black ([3]; Postemergence, 62 g ai/ha): 0
Plant response rating, Chickweed ([4]; 8 g ai/ha): 0
Plant response rating, Chickweed ([4]; 16 g ai/ha): 0
Plant response rating, Chickweed ([4]; 31 g ai/ha): 0
Plant response rating, Purslane ([5]; 16 g ai/ha, Preemergence): 0
Plant response rating, Purslane ([5]; 31 g ai/ha, Preemergence): 0
Plant response rating, Purslane ([5]; 62 g ai/ha, Preemergence): 0
Plant response rating, Purslane ([5]; Postemergence, 8 g ai/ha): 0
Plant response rating, Purslane ([5]; Postemergence, 16 g ai/ha): 0
Plant response rating, Purslane ([5]; Postemergence, 31 g ai/ha): 0
Plant response rating, Purslane ([5]; Postemergence, 62 g ai/ha): 0
Plant response rating, Dallisgrass ([6]; 8 g ai/ha, Preemergence): 80
Plant response rating, Dallisgrass ([6]; 16 g ai/ha, Preemergence): 95
Plant response rating, Dallisgrass ([6]; 31 g ai/ha, Preemergence): 100
Plant response rating, Dallisgrass ([6]; 62 g ai/ha, Preemergence): 100
Plant response rating, Dallisgrass ([6]; Postemergence, 8 g ai/ha): 65
Plant response rating, Dallisgrass ([6]; Postemergence, 16 g ai/ha): 75
Plant response rating, Dallisgrass ([6]; Postemergence, 31 g ai/ha): 80
Plant response rating, Dallisgrass ([6]; Postemergence, 62 g ai/ha): 95
Plant response rating, Goosegrass ([7]; 8 g ai/ha, Preemergence): 75
Plant response rating, Goosegrass ([7]; 16 g ai/ha, Preemergence): 98
Plant response rating, Goosegrass ([7]; 31 g ai/ha, Preemergence): 100
Plant response rating, Goosegrass ([7]; 62 g ai/ha, Preemergence): 100
Plant response rating, Goosegrass ([7]; Postemergence, 8 g ai/ha): 65
Plant response rating, Goosegrass ([7]; Postemergence, 16 g ai/ha): 65
Plant response rating, Goosegrass ([7]; Postemergence, 31 g ai/ha): 80
Plant response rating, Goosegrass ([7]; Postemergence, 62 g ai/ha): 95
Plant response rating, Foxtail, Green ([8]; 8 g ai/ha, Preemergence): 40
Plant response rating, Foxtail, Green ([8]; 16 g ai/ha, Preemergence): 75
Plant response rating, Foxtail, Green ([8]; 31 g ai/ha, Preemergence): 98
Plant response rating, Foxtail, Green ([8]; 62 g ai/ha, Preemergence): 100
Plant response rating, Foxtail, Green ([8]; Postemergence, 8 g ai/ha): 70
Plant response rating, Foxtail, Green ([8]; Postemergence, 16 g ai/ha): 80
Plant response rating, Foxtail, Green ([8]; Postemergence, 31 g ai/ha): 95
Plant response rating, Foxtail, Green ([8]; Postemergence, 62 g ai/ha): 98
Plant response rating, Johnsongrass ([9]; 16 g ai/ha, Preemergence): 75
Plant response rating, Johnsongrass ([9]; 31 g ai/ha, Preemergence): 75
Plant response rating, Johnsongrass ([9]; 62 g ai/ha, Preemergence): 98
Plant response rating, Johnsongrass ([9]; Postemergence, 8 g ai/ha): 60
Plant response rating, Johnsongrass ([9]; Postemergence, 16 g ai/ha): 60
Plant response rating, Johnsongrass ([9]; Postemergence, 31 g ai/ha): 90
Plant response rating, Johnsongrass ([9]; Postemergence, 62 g ai/ha): 98
Plant response rating, Crabgrass, Large ([10]; 8 g ai/ha, Preemergence): 50
Plant response rating, Crabgrass, Large ([10]; 16 g ai/ha, Preemergence): 70
Plant response rating, Crabgrass, Large ([10]; 31 g ai/ha, Preemergence): 100
Plant response rating, Crabgrass, Large ([10]; 62 g ai/ha, Preemergence): 100
Plant response rating, Crabgrass, Large ([10]; Postemergence, 8 g ai/ha): 75
Plant response rating, Crabgrass, Large ([10]; Postemergence, 16 g ai/ha): 85
Plant response rating, Crabgrass, Large ([10]; Postemergence, 31 g ai/ha): 90
Plant response rating, Crabgrass, Large ([10]; Postemergence, 62 g ai/ha): 95
Plant response rating, Quackgrass ([11]; 16 g ai/ha, Preemergence): 60
Plant response rating, Quackgrass ([11]; 31 g ai/ha, Preemergence): 80
Plant response rating, Quackgrass ([11]; 62 g ai/ha, Preemergence): 90
Plant response rating, Quackgrass ([11]; Postemergence, 8 g ai/ha): 30
Plant response rating, Quackgrass ([11]; Postemergence, 16 g ai/ha): 50
Plant response rating, Quackgrass ([11]; Postemergence, 31 g ai/ha): 70
Plant response rating, Quackgrass ([11]; Postemergence, 62 g ai/ha): 95
Plant response rating, Sandbur, S. ([12]; 16 g ai/ha, Preemergence): 98
Plant response rating, Sandbur, S. ([12]; 31 g ai/ha, Preemergence): 100
Plant response rating, Sandbur, S. ([12]; 62 g ai/ha, Preemergence): 100
Plant response rating, Sandbur, S. ([12]; Postemergence, 8 g ai/ha): 75
Plant response rating, Sandbur, S. ([12]; Postemergence, 16 g ai/ha): 85
Plant response rating, Sandbur, S. ([12]; Postemergence, 31 g ai/ha): 95
Plant response rating, Sandbur, S. ([12]; Postemergence, 62 g ai/ha): 100
Plant response rating, Surinam Grass ([13]; 16 g ai/ha, Preemergence): 100
Plant response rating, Surinam Grass ([13]; 31 g ai/ha, Preemergence): 100
Plant response rating, Surinam Grass ([13]; 62 g ai/ha, Preemergence): 100
Plant response rating, Surinam Grass ([13]; Postemergence, 8 g ai/ha): 90
Plant response rating, Surinam Grass ([13]; Postemergence, 16 g ai/ha): 90
Plant response rating, Surinam Grass ([13]; Postemergence, 31 g ai/ha): 100
Plant response rating, Surinam Grass ([13]; Postemergence, 62 g ai/ha): 100
